Tests used:
Format in all cases: cell-based, human
GPX4 = assay: Western blotting, GPX4 expression; conditions: MCF-7, 0, 2.5, 5 and 10 μM, 48 h
Experimental: We examined the effect of A8 on the expression of GPX4 as well, which is vital in preventing ferroptosis. […] Thus, we concluded that A8 induced the accumulation of ROS and lipid peroxidation and suppressed GSH levels and the expression of GPX4, thereby leading to the induction of ferroptosis.
MCF-7 cells were seeded at a density of 4 × 10^5 cells per well and treated with various concentrations of compound A8 (0, 2.5, 5 and 10 μM) for 48 h. After this, cells were collected and washed twice with ice-cold DPBS. The pellets were resuspended in a total protein extraction buffer (20 mM HEPES, 350 mM NaCl, 20% glycerol, 1% NP-40, 1 mM MgCl2, 0.5 mM EDTA, 0.1 mM EGTA, 0.1 mM DTT, 0.1 mM PMSF) containing a protease inhibitor cocktail and incubated on ice for 30 min with intermittent mixing. The protein concentration was measured using the Bradford reagent (Bio-Rad Laboratories Inc., Hercules, CA, USA). An equal amount (20 μg) of protein was loaded on 10% polyacrylamide gels and transferred to a nitrocellulose membrane. After blocking with 5% skimmed milk, the membrane was incubated at 4 °C overnight with specific primary antibodies. The membrane was washed and incubated at room temperature for 1 h with secondary antibodies conjugated with horseradish peroxidase (HRP). Finally, the immunoblot was developed for visualization using a chemiluminescence kit. […]

MCF-7 cells = assay: Lipid peroxidation (MDA) detection; conditions: MCF-7
From the text: We also determined the effect of A8 on the expression of GSH and MDA (lipid peroxidation).
Lipid peroxidation assay kit (Beyotime, Shanghai, China) was used to detect malonaldehyde (MDA), together with GSH level assay, present in samples, as per the manufacturer’s instruction with slight modifications.

[1] = test system: ovarian cancer SK-OV-3 cells; assay: MTT antiproliferation assay, SK-OV-3; conditions: 48 h, means ± SD, n = 3
From the text: The target hybrids A1–A15 were screened for their antiproliferation activities against five human cancer cell lines (lung cancer A549 cells, breast cancer MCF-7 and MDA-MB-231 cells, colon cancer HCT116 cells and ovarian cancer SK-OV-3 cells) in vitro by the standard MTT method, and 5-fluorouracil (5-FU) and ART were coassayed as controls. […] Therefore, the most promising hybrid, A8, was chosen for further exploration of the preliminary mechanism of MCF-7 cell antiproliferation.
Cytotoxicity of test compounds against five different tumor cell lines were evaluated using an MTT assay in vitro. Cells were seeded into 96-well plates at a density of 5 × 10^4 cells per well and stabilized at 37 °C with 5% CO2 for 24 h. Compounds A1–A15, ART and 5-FU were added to each well at various concentrations and then the cells were incubated for 48 h. The MTT solution (100 μL 0.5 mg/mL^−1) was added to each well, and the cells were incubated for another 4 h. Then, 150 μL DMSO was added to each well and the absorbance of samples was measured at 492 nm. The IC50 values were calculated according to Logit method after getting the inhibitory rate.

CC1CCC2C(C)C(OC(=O)CCC(=O)NCc3nnc(Nc4ccc(F)cc4F)o3)OC3OC4(C)CCC1C32OO4 (stereo not drawn) [A8]
GPX4 expression (in words) (GPX4): dose-dependent inhibition of GPX4 expression | MDA level (in words) (MCF-7 cells): increased at higher concentrations | IC50 [1]: 7.15 ± 0.95 µM

— PMC9779727, “Identification of Novel Artemisinin Hybrids Induce Apoptosis and Ferroptosis in MCF-7 Cells” (International Journal of Molecular Sciences, 2022)
